Experiments:
SMN protein = SMN protein assay (MSD) in SMA patient fibroblasts (GM03813); type: cell-based, human
Experimental: Compounds are tested on spinal muscular atrophy (SMA) patient fibroblasts (GM03813, Coriell) at doses ranging from 2.5 μM to 0.6 nM. 7000 cells/well are seeded in 96-well plates. Compounds are incubated for 48 hours and the cells were lysed with 100 μL of lysis buffer. 20 μL of lysate is used for SMN protein measurement by Mesoscale Discovery (MSD) assay developed by PharmOptima (Michigan). A standard curve prepared with SMN protein ranging from […] is used in each MSD plate to calculate the absolute SMN protein amount in each sample.

[1] = system: MDR1-MDCK cell monolayers; settings: dog, MDCK-MDR1, 120 min, 5 μM, pH 7.4
MDR1 = assay: in vitro; settings: dog; for Papp A→B at 120 min, 5 μM: MDCK-MDR1, pH 7.4, MDCK-MDR1: Papp A-B (10^−6, cm/s); for Papp B→A at 120 min, 5 μM: MDCK-MDR1, pH 7.4, MDCK-MDR1: Papp B-A (10^−6, cm/s)
MDR1 (P-gp) = assay: MDCK-MDR1 permeability assay, blood-brain-barrier penetration potential; settings: dog, MDCK-MDR1, pH 7.4, MDCK-MDR1 Efflux Ratio

SMILES | EC50 (SMN protein) [nM] | MDCK-MDR1: % Recov A-B (%) [1] [%] | MDCK-MDR1: % Recov B-A (%) [1] [%] | Papp A→B at 120 min, 5 μM (MDR1) [nm/s] | Papp B→A at 120 min, 5 μM (MDR1) [nm/s] | efflux ratio at 120 min, 5 μM (MDR1 (P-gp))
COc1cc(-c2ccc(-c3cnc(N(C)[C@H]4C[C@@H]5CCC(N5)[C@H]4F)cn3)c(O)c2)cc(F)n1 (single isomer, unassigned) [Compound 44E2] | 101 to 500 | 13 | 52 | 33.3 | 91 | 3
CN(c1cnc(-c2ccc(-c3ccn(C)c(=O)c3)cc2O)cn1)[C@H]1C[C@@H]2CCC(N2)[C@H]1F (single isomer, unassigned) [Compound 45E2] | 51 to 100 | 87 | 87 | 19 | 656 | 35
CN(c1cnc(-c2ccc(-c3ccn(CF)c(=O)c3)cc2O)cn1)[C@@H]1CC2CC[C@H](N2)[C@@H]1F (single isomer, unassigned) [Compound 46E1] | 501 to 10000 | 74 | 78 | 16.9 | 379 | 22
CN(c1cnc(-c2ccc(-c3ccn(CF)c(=O)c3)cc2O)cn1)[C@H]1C[C@@H]2CCC(N2)[C@H]1F (single isomer, unassigned) [Compound 46E2] | 101 to 500 | 77 | 80 | 20 | 430 | 22
CN(c1cnc(-c2ccc(-c3cc(=O)n(C)cn3)cc2O)cn1)[C@@H]1CC2CC[C@H](N2)[C@@H]1F (single isomer, unassigned) [Compound 47E1] | 101 to 500 | 74 | 78 | 23.2 | 528 | 23
CN(c1cnc(-c2ccc(-c3cc(=O)n(C)cn3)cc2O)cn1)[C@H]1C[C@@H]2CCC(N2)[C@H]1F (single isomer, unassigned) [Compound 47E2] | 51 to 100 | 84 | 90 | 33.5 | 511 | 15
COc1cc(-c2ccc(-c3cnc(N(C)[C@H]4C[C@@H]5CCC(N5)[C@H]4F)cn3)c(O)c2)ncn1 (single isomer, unassigned) [Compound 48E2] | 51 to 100 | 28 | 57 | 53.8 | 138 | 3
Cn1cc(-c2ccc(-c3cnc(N(C4CC4)[C@@H]4CC5CC[C@H](N5)[C@@H]4F)cn3)c(O)c2)cn1 (single isomer, unassigned) [Compound 49E1] | 501 to 10000 | 47 | 65 | 47.3 | 265 | 6
Cn1cnc(-c2cc(O)c(-c3cnc(N(C4CC4)[C@@H]4CC5CC[C@H](N5)[C@@H]4F)cn3)cc2F)cc1=O (single isomer, unassigned) [Compound 50E1] | 501 to 10000 | 82 | 92 | 15.9 | 464 | 29
Cn1cnc(-c2cc(O)c(-c3cnc(N(C4CC4)[C@H]4C[C@@H]5CCC(N5)[C@H]4F)cn3)cc2F)cc1=O (single isomer, unassigned) [Compound 50E2] | 501 to 10000 | 81 | 90 | 12.9 | 493 | 38
COc1cc(-c2ccc(-c3cnc(N(C4CC4)[C@@H]4CC5CC[C@H](N5)[C@@H]4F)cn3)c(O)c2)ccn1 (single isomer, unassigned) [Compound 51E1] | 501 to 10000 | 8 | 34 | 15 | 31.9 | 2
COc1cc(-c2ccc(-c3cnc(N(C4CC4)[C@H]4C[C@@H]5CCC(N5)[C@H]4F)cn3)c(O)c2)ccn1 (single isomer, unassigned) [Compound 51E2] | 501 to 10000 | 11 | 34 | 12.7 | 29.9 | 2
COc1cc(-c2ccc(-c3cnc(N(C4CC4)[C@@H]4CC5CC[C@H](N5)[C@@H]4F)cn3)c(O)c2)cc(F)n1 (single isomer, unassigned) [Compound 52E1] | 501 to 10000 | 12 | 76 | 9.2 | 7.1 | 1
COc1cc(-c2ccc(-c3cnc(N(C4CC4)[C@H]4C[C@@H]5CCC(N5)[C@H]4F)cn3)c(O)c2)cc(F)n1 (single isomer, unassigned) [Compound 52E2] | 501 to 10000 | 12 | 49 | 16.3 | 33.2 | 2
Cn1ccc(-c2ccc(-c3cnc(N(C4CC4)[C@@H]4CC5CC[C@H](N5)[C@@H]4F)cn3)c(O)c2)cc1=O (single isomer, unassigned) [Compound 53E1] | 501 to 10000 | 71 | 71 | 15.1 | 509 | 34
Cn1ccc(-c2ccc(-c3cnc(N(C4CC4)[C@H]4C[C@@H]5CCC(N5)[C@H]4F)cn3)c(O)c2)cc1=O (single isomer, unassigned) [Compound 53E2] | 501 to 10000 | 71 | 69 | 16.1 | 461 | 29
O=c1cc(-c2ccc(-c3cnc(N(C4CC4)[C@@H]4CC5CC[C@H](N5)[C@@H]4F)cn3)c(O)c2)ccn1CF (single isomer, unassigned) [Compound 54E1] | 501 to 10000 | 64 | 70 | 19.2 | 434 | 23
O=c1cc(-c2ccc(-c3cnc(N(C4CC4)[C@H]4C[C@@H]5CCC(N5)[C@H]4F)cn3)c(O)c2)ccn1CF (single isomer, unassigned) [Compound 54E2] | 501 to 10000 | 63 | 67 | 18.1 | 440 | 24
Cn1cnc(-c2ccc(-c3cnc(N(C4CC4)[C@@H]4CC5CC[C@H](N5)[C@@H]4F)cn3)c(O)c2)cc1=O (single isomer, unassigned) [Compound 55E1] | 501 to 10000 | 81 | 85 | 24.6 | 644 | 26
Cn1cnc(-c2ccc(-c3cnc(N(C4CC4)[C@H]4C[C@@H]5CCC(N5)[C@H]4F)cn3)c(O)c2)cc1=O (single isomer, unassigned) [Compound 55E2] | 501 to 10000 | 71 | 76 | 22.5 | 422 | 19
COc1cc(-c2ccc(-c3cnc(N(C4CC4)[C@@H]4CC5CC[C@H](N5)[C@@H]4F)cn3)c(O)c2)ncn1 (single isomer, unassigned) [Compound 56E1] | 501 to 10000 | 17 | 51 | 20.9 | 79.1 | 4
COc1cc(-c2ccc(-c3cnc(N(C4CC4)[C@H]4C[C@@H]5CCC(N5)[C@H]4F)cn3)c(O)c2)ncn1 (single isomer, unassigned) [Compound 56E2] | 101 to 500 | 14 | 48 | 21.2 | 45.5 | 2
CNC(=O)/C=C/c1cc(O)c(-c2cnc(N(C)[C@@H]3CC4CC[C@H](N4)[C@@H]3F)cn2)cc1F (single isomer, unassigned) [Compound 60E1] | 51 to 100 | 93 | 88 | 17.1 | 513 | 30
CN(c1cnc(-c2cc(F)c(C3=CC(F)NC(F)=C3)cc2O)cn1)[C@@H]1C[C@@]2(C)CC[C@](C)(N2)[C@@H]1F (single isomer, unassigned) [Compound 63E1] | 501 to 10000 | 18 | 35 | 7 | 4.5 | 1
COc1cc(-c2cc(O)c(-c3cnc(N(C)[C@@H]4C[C@@]5(C)CC[C@](C)(N5)[C@@H]4F)cn3)cc2F)cnn1 (single isomer, unassigned) [Compound 64E1] | 501 to 10000 | 71 | 80 | 39.7 | 498 | 13
